From US20210205277A1, “MODULATORS OF THE INTEGRATED STRESS PATHWAY” (Calico Life Sciences LLC, priority 2017, published 2021)

System: HEK293T cells carrying the ATF4 luciferase reporter
Experiment: ATF4-Luc assay (in vitro model of VWMD)
Type: cell-based
Conditions: Homo sapiens, HEK-293T; HEK293T cells with ATF4 5'-UTR firefly luciferase reporter; 1 μg/mL tunicamycin; 7 hours; One Glo luminescence
Description: In order to test exemplary compounds of the invention in a cellular context, a stable VWMD cell line was first constructed. The ATF4 reporter was prepared by fusing the human full-length ATF4 5′-UTR (NCBI Accession No. BC022088.2) in front of the firefly luciferase (FLuc) coding sequence lacking the initiator methionine as described in Sidrauski et al (eLife 2013). The construct was used to produce recombinant retroviruses using standard methods and the resulting viral supernatant was used to transduce HEK293T cells, which were then subsequently selected with puromycin to generate a stable cell line.
HEK293T cells carrying the ATF4 luciferase reporter were plated on polylysine coated 384-well plates (Greiner Bio-one) at 30,000 cells per well. Cells were treated the next day with 1 μg/mL tunicamycin and 200 nM of a compound of Formula (I) for 7 hours. Luminescence was measured using One Glo (Promega) as specified by the manufacturer. Cells were maintained in DMEM with L-glutamine supplemented with 10% heat-inactivated FBS (Gibco) and Antibiotic-Antimycotic solution (Gibco).
Table 2 below summarizes the EC50 data obtained using the ATF4-Luc assay for exemplary compounds of the invention.

Structure (SMILES) | EC50 [nM]
O=C(COc1ccc(Cl)c(F)c1)NC12CCC(n3ccc(-c4ccc(Cl)cc4)c3)(CC1)CC2O (stereo not shown) [Compound 109, 2-(4-chloro-3-fluorophenoxy)-N-{4-[3-(4-chlorophenyl)-1H-pyrrol-1-yl]-2-hydroxybicyclo[2.2.2]octan-1-yl}acetamide] | 10 to 50
O=C(COc1ccc(Cl)c(F)c1)NC12CCC(c3nnc(-c4ccc(Cl)c(F)c4)o3)(CC1)C[C@@H]2O (single isomer, unassigned) [Compound 123] | < 10
O=C(COc1ccc(Cl)c(F)c1)NC12CCC(c3ncc(-c4ccc(Cl)cc4)o3)(CC1)[C@H](O)C2 [Compound 114, 2-(4-chloro-3-fluorophenoxy)-N-{(3R)-4-[5-(4-chlorophenyl)-1,3-oxazol-2-yl]-3-hydroxybicyclo[2.2.2]octan-1-yl}acetamide] | < 10
O=C(COc1ccc(Cl)c(F)c1)NC12CCC(c3ncc(-c4ccc(Cl)c(F)c4)[nH]3)(CC1)[C@@H](O)C2 [Compound 119, 2-(4-chloro-3-fluorophenoxy)-N-{(3S)-4-[5-(4-chloro-3-fluorophenyl)-1H-imidazol-2-yl]-3-hydroxybicyclo[2.2.2]octan-1-yl}acetamide] | < 10
O=C(COc1ccc(Cl)c(F)c1)NC12CCC(c3nnc(-c4ccc(Cl)c(F)c4)o3)(CC1)CC2O (stereo not shown) [Compound 108, 2-(4-chloro-3-fluorophenoxy)-N-{4-[5-(4-chloro-3-fluorophenyl)-1,3,4-oxadiazol-2-yl]-2-hydroxybicyclo[2.2.2]octan-1-yl}acetamide] | < 10
O=C(COc1ccc(Cl)c(F)c1)NC12CCC(n3ccc(-c4ccc(Cl)c(F)c4)c3)(CC1)CC2O (stereo not shown) [Compound 102, 2-(4-chloro-3-fluorophenoxy)-N-{4-[3-(4-chloro-3-fluorophenyl)-1H-pyrrol-1-yl]-2-hydroxybicyclo[2.2.2]octan-1-yl}acetamide] | < 10
O=C(COc1ccc(Cl)c(F)c1)NC12CCC(c3nnc(-c4ccc(Cl)c(F)c4)o3)(CC1)C(O)C2 (stereo not shown) [Compound 107, 2-(4-chloro-3-fluorophenoxy)-N-{4-[5-(4-chloro-3-fluorophenyl)-1,3,4-oxadiazol-2-yl]-3-hydroxybicyclo[2.2.2]octan-1-yl}acetamide] | < 10
O=C(COc1ccc(Cl)c(F)c1)NC12CCC(c3nc(-c4ccc(Cl)c(F)c4)no3)(CC1)CC2=O [Compound 111, 2-(4-chloro-3-fluorophenoxy)-N-{4-[3-(4-chloro-3-fluorophenyl)-1,2,4-oxadiazol-5-yl]-2-oxobicyclo[2.2.2]octan-1-yl}acetamide] | > 2000
O=C(NC12CCC(c3nc(-c4ccc(Cl)c(F)c4)no3)(CC1)C(O)C2)c1cc(C(F)F)no1 (stereo not shown) [Compound 121, N-{4-[3-(4-chloro-3-fluorophenyl)-1,2,4-oxadiazol-5-yl]-3-hydroxybicyclo[2.2.2]octan-1-yl}-3-(difluoromethyl)-1,2-oxazole-5-carboxamide] | 500 to 2000
O=C(COc1ccc(Cl)c(F)c1)NC12CCC(n3ccc(-c4ccc(Cl)c(F)c4)c3)(CC1)C[C@@H]2O [Compound 113, 2-(4-chloro-3-fluorophenoxy)-N-{(2S)-4-[3-(4-chloro-3-fluorophenyl)-1H-pyrrol-1-yl]-2-hydroxybicyclo[2.2.2]octan-1-yl}acetamide] | < 10
O=C(COc1ccc(Cl)c(F)c1)NC12CCC(c3nnc(-c4ccc(Cl)c(F)c4)o3)(CC1)C(=O)C2 [Compound 106, 2-(4-chloro-3-fluorophenoxy)-N-{4-[5-(4-chloro-3-fluorophenyl)-1,3,4-oxadiazol-2-yl]-3-oxobicyclo[2.2.2]octan-1-yl}acetamide] | < 10
O=C(COc1ccc(Cl)c(F)c1)NC12CCC(c3nnc(-c4ccc(Cl)c(F)c4)o3)(CC1)[C@H](O)C2 (single isomer, unassigned) [Compound 101] | < 10
O=C(COc1ccc(Cl)c(F)c1)NC12CC(c3ncc(-c4ccc(Cl)c(F)c4)[nH]3)(C1)C2 [Compound 116, 2-(4-chloro-3-fluorophenoxy)-N-{3-[5-(4-chloro-3-fluorophenyl)-1H-imidazol-2-yl]bicyclo[1.1.1]pentan-1-yl}acetamide] | < 10
O=C(COc1ccc(Cl)c(F)c1)NC12CCC(n3nccc3-c3ccc(Cl)c(F)c3)(CC1)C[C@@H]2O [Compound 112, 2-(4-chloro-3-fluorophenoxy)-N-{(2S)-4-[5-(4-chloro-3-fluorophenyl)-1H-pyrazol-1-yl]-2-hydroxybicyclo[2.2.2]octan-1-yl}acetamide] | 500 to 2000
O=C(COc1ccc(Cl)c(F)c1)NC12CCC(c3nc(-c4ccc(Cl)c(F)c4)no3)(CC1)[C@H](O)C2 [Compound 103, 2-(4-chloro-3-fluorophenoxy)-N-{(3R)-4-[3-(4-chloro-3-fluorophenyl)-1,2,4-oxadiazol-5-yl]-3-hydroxybicyclo[2.2.2]octan-1-yl}acetamide] | 10 to 50
O=C(COc1ccc(Cl)c(F)c1)NC12CCC(c3ncc(-c4ccc(Cl)cc4)[nH]3)(CC1)[C@H](O)C2 [Compound 118, 2-(4-chloro-3-fluorophenoxy)-N-{(3R)-4-[5-(4-chlorophenyl)-1H-imidazol-2-yl]-3-hydroxybicyclo[2.2.2]octan-1-yl}acetamide] | < 10
O=C(COc1ccc(Cl)c(F)c1)NC12CCC(c3nnc(-c4ccc(Cl)c(F)c4)o3)(CC1)[C@@H](O)C2 [Compound 100, 2-(4-chloro-3-fluorophenoxy)-N-{(3S)-4-[5-(4-chloro-3-fluorophenyl)-1,3,4-oxadiazol-2-yl]-3-hydroxybicyclo[2.2.2]octan-1-yl}acetamide] | < 10
O=C(COc1ccc(Cl)c(F)c1)NC12CCC(c3nnc(-c4ccc(Cl)c(F)c4)o3)(CC1)C[C@H]2O (single isomer, unassigned) [Compound 122] | < 10
O=C(COc1ccc(Cl)c(F)c1)NC12CCC(c3nc(-c4ccc(Cl)c(F)c4)no3)(CC1)[C@@H](O)C2 [Compound 104, 2-(4-chloro-3-fluorophenoxy)-N-{(3S)-4-[3-(4-chloro-3-fluorophenyl)-1,2,4-oxadiazol-5-yl]-3-hydroxybicyclo[2.2.2]octan-1-yl}acetamide] | < 10
COc1ncc(-c2nnc(C34CCC(NC(=O)COc5ccc(Cl)c(F)c5)(CC3)C(O)C4)o2)cn1 (stereo not shown) [Compound 124, 2-(4-chloro-3-fluorophenoxy)-N-{2-hydroxy-4-[5-(2-methoxypyrimidin-5-yl)-1,3,4-oxadiazol-2-yl]bicyclo[2.2.2]octan-1-yl}acetamide] | > 2000
O=C(COc1ccc(Cl)c(F)c1)NC12CCC(c3nc(-c4ccc(Cl)c(F)c4)no3)(CC1)C(=O)C2 [Compound 105, 2-(4-chloro-3-fluorophenoxy)-N-{4-[3-(4-chloro-3-fluorophenyl)-1,2,4-oxadiazol-5-yl]-3-oxobicyclo[2.2.2]octan-1-yl}acetamide] | < 10
O=C(COc1ccc(Cl)c(Cl)c1)NC12CCC(n3ccc(-c4ccc(Cl)c(F)c4)c3)(CC1)C[C@@H]2O [Compound 115, N-{(2S)-4-[3-(4-chloro-3-fluorophenyl)-1H-pyrrol-1-yl]-2-hydroxybicyclo[2.2.2]octan-1-yl}-2-(3,4-dichlorophenoxy)acetamide] | < 10
O=C(NC12CCC(c3nc(-c4cccc(F)c4)no3)(CC1)C(O)C2)c1cc(C(F)F)no1 (stereo not shown) [Compound 120, 3-(difluoromethyl)-N-{4-[3-(3-fluorophenyl)-1,2,4-oxadiazol-5-yl]-3-hydroxybicyclo[2.2.2]octan-1-yl}-1,2-oxazole-5-carboxamide] | > 2000
O=C(COc1ccc(Cl)c(F)c1)NC12CCC(c3ncc(-c4ccc(Cl)cc4)[nH]3)(CC1)[C@@H](O)C2 [Compound 110, 2-(4-chloro-3-fluorophenoxy)-N-{(3S)-4-[5-(4-chlorophenyl)-1H-imidazol-2-yl]-3-hydroxybicyclo[2.2.2]octan-1-yl}acetamide] | < 10
Cn1c(-c2ccc(Cl)c(F)c2)cnc1C12CC(NC(=O)COc3ccc(Cl)c(F)c3)(C1)C2 [Compound 117, 2-(4-chloro-3-fluorophenoxy)-N-{3-[5-(4-chloro-3-fluorophenyl)-1-methyl-1H-imidazol-2-yl]bicyclo[1.1.1]pentan-1-yl}acetamide] | 10 to 50
